Assays:
Format in all cases: biochemical
Flt4 = molecular target: T1, Flt4 (Homo sapiens, UniProt P35916); assay: AlphaScreen kinase assay, Flt4; details: read-out: IC50, activity toward kinase Flt4
T1 construct: purchased ProQinase GmbH (Freiburg, Germany)
Method in brief: (§1)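 Uses phospho-specific antibody on acceptor beads plus streptavidin donor beads capturing biotinylated peptide substrate; singlet oxygen from donor excites nearby acceptor. Inhibitors tested in 8-point, 1:3 titrations starting from 20 mM DMSO solutions.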

Ret = molecular target: T2, Ret (Homo sapiens, UniProt P07949); assay: AlphaScreen kinase assay, Ret; details: read-out: IC50, activity toward kinase Ret
T2 construct: P1378.pET-SF BI-PTP RET H661-R1012 HIS; made in house
T2 sequence (P07949 with tags, fused parts or gaps): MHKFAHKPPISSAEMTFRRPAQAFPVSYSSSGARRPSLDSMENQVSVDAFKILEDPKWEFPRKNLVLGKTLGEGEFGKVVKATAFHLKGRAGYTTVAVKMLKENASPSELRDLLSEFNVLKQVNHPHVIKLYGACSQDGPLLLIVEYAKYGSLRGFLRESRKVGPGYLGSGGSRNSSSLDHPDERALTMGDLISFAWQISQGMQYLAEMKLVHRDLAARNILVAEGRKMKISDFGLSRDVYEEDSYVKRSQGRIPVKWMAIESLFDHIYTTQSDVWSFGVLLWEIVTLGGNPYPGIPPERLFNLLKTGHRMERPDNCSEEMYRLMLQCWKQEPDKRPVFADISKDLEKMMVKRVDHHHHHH

Jak3 = molecular target: T3, Jak3 (Homo sapiens, UniProt P52333); assay: AlphaScreen kinase assay, Jak3; details: read-out: IC50, activity toward kinase Jak3
T3 sequence (P52333 1-1124): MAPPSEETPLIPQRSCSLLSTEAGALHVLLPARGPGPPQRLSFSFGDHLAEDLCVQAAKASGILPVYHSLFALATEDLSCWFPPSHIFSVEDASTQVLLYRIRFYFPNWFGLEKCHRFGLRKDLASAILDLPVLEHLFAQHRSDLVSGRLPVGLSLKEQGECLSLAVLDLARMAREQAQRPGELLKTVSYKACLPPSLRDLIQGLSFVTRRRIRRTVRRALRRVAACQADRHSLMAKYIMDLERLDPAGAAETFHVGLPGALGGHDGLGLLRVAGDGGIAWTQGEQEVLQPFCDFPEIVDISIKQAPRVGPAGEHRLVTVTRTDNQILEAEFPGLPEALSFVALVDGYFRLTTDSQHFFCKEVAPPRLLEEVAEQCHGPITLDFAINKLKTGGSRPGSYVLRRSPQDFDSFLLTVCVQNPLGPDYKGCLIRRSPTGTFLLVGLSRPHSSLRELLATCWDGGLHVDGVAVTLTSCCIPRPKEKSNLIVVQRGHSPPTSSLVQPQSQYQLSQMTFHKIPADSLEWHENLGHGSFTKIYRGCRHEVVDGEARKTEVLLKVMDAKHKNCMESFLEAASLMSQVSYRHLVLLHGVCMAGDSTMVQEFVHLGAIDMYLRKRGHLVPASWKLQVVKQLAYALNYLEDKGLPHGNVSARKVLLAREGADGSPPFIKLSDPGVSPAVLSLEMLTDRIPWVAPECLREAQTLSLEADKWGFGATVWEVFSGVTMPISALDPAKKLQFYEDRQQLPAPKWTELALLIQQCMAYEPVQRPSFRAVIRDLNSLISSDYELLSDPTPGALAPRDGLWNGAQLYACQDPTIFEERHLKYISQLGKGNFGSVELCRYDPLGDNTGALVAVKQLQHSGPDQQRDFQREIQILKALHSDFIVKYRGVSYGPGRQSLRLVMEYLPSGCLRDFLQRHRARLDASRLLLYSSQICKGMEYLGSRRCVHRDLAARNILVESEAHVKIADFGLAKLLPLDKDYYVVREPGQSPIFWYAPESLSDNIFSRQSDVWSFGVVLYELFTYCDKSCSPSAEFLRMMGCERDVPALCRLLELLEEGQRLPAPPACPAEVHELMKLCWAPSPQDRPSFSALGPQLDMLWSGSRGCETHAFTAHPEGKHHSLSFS
Text: AlphaScreen assay was used to screen additional kinases. The assay is similarly dependent on the phosphorylation of a peptide substrate. In this assay, an antibody that recognizes phosphorylated substrate is bound to an acceptor bead. The peptide substrate is attached to biotin, which binds to a donor head that contains streptavidin. Thus phosphorylated substrate is bound by antibody and streptavidin, bringing the donor and acceptor heads into close proximity when kinase is not inhibited. The donor produces singlet oxygen which results in emission from the acceptor when they are in close proximity. Conversely, when kinase is inhibited, the donor and acceptor beads are not associated and the emission from the acceptor is reduced.
AlphaScreen assays were done using compounds dissolved in DMSO to a concentration of 20 mM. The compounds were diluted accordingly to the desired final concentrations in each sample well, using 1:3 serial dilution for a total of 8 concentration points.

B-Raf V600E = molecular target: T4, B-Raf V600E (Homo sapiens, UniProt P15056, V600E); assay: AlphaScreen kinase assay, B-Raf V600E; details: read-out: IC50, activity toward kinase B-Raf V600E
T4 construct: P4254. pFastBacBD-CDC37 BRAF D437-K722-X, V600E; His6 with pFastBac HT leader (TEV site) (N); made in house; host or cells: Sf9 (baculovirus; chaperone CDC37 co-expressed)

FGFR1 = molecular target: T5, FGFR1 (Homo sapiens, UniProt P11362, C488A/C584S); assay: AlphaScreen kinase assay, FGFR1; details: read-out: IC50, activity toward kinase FGFR
T5 construct: P1351.pET N6 BI-PTP FGFR A458-E765-X C488A, C584S; made in house; host or cells: E. coli (PTP1B co-expressed)

Kdr = molecular target: T6, Kdr (Homo sapiens, UniProt P35968); assay: Z'-Lyte FRET kinase assay (Invitrogen), Kdr; details: read-out: IC50, activity toward kinase Kdr
T6 construct: purchased Invitrogen (assay run by Invitrogen)

MAP2K1 = molecular target: T7, MAP2K1 (Homo sapiens, UniProt Q02750); assay: Z'-Lyte FRET kinase assay (Invitrogen), MAP2K1; details: read-out: IC50, activity toward kinase MAP2K1
T7 construct: purchased Invitrogen (assay run by Invitrogen)

Btk = molecular target: T8, Btk (Homo sapiens, UniProt Q06187); assay: Z'-Lyte FRET kinase assay (Invitrogen), Btk; details: read-out: IC50, activity toward kinase Btk
T8 construct: purchased Invitrogen (assay run by Invitrogen)

Pyk2 = molecular target: T9, Pyk2 (Homo sapiens, UniProt Q14289); assay: AlphaScreen kinase assay, Pyk2; details: read-out: IC50, activity toward kinase Pyk2
T9 construct: purchased Upstate Biotechnology
Procedure: AlphaScreen assays were done using compounds dissolved in DMSO to a concentration of 20 mM. The compounds were diluted accordingly to the desired final concentrations in each sample well, using 1:3 serial dilution for a total of 8 concentration points. Plates were prepared such that each kinase reaction is 20 μl in 1× kinase buffer, 5% DMSO and 10 μM ATP. After incubation of the kinase reaction for 1 hour at room temperature, 5 μl of donor beads in stop buffer (50 mM EDTA in 1× kinase buffer) was added, the sample was mixed and incubated for 20 minutes at room temperature before adding 5 μl of acceptor beads in stop buffer. The samples were incubated for 60 minutes at room temperature and the signal per well was read on AlphaQuest reader.

Stk6 = molecular target: T10, Stk6 (Homo sapiens, UniProt O14965); assay: Z'-Lyte FRET kinase assay (Invitrogen), Stk6; details: read-out: IC50, activity toward kinase Stk6
T10 construct: purchased Invitrogen (Carlsbad, Calif.), screening service
T10 sequence (O14965 1-403): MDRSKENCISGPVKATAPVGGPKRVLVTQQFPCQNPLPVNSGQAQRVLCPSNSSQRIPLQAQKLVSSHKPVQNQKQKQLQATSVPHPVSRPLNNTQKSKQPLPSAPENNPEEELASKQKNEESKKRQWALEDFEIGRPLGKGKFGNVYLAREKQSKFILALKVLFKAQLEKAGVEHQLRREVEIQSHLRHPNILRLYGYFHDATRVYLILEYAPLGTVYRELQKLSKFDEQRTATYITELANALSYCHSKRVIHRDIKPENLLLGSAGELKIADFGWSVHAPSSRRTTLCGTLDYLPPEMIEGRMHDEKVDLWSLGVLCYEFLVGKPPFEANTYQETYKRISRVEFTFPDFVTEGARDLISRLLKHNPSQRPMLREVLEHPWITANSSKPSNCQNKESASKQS

Yes = molecular target: T11, Yes (Homo sapiens, UniProt P07947); assay: Z'-Lyte FRET kinase assay (Invitrogen), Yes; details: read-out: IC50, activity toward kinase Yes
T11 construct: purchased Invitrogen (Carlsbad, Calif.), screening service
Method in brief: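 Read-out is the coumarin-to-fluorescein emission ratio, which rises when unphosphorylated peptide is cleaved by the development protease. Reactions contain serially diluted compound, 2 μM peptide and 10 μM ATP and run for 1 h at room temperature before 1 h development.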

Jnk2 = molecular target: T12, Jnk2 (Homo sapiens, UniProt P45984); assay: AlphaScreen kinase assay, Jnk2; details: read-out: IC50, activity toward kinase Jnk2
T12 construct: purchased Roche Protein Expression Group (Indianapolis, IN)
Method in brief: as §1

PKC theta = molecular target: T13, PKC theta (Homo sapiens, UniProt Q04759); assay: Z'-Lyte FRET kinase assay (Invitrogen), PKC theta; details: read-out: IC50, activity toward kinase PKC theta
T13 construct: purchased Invitrogen (Carlsbad, Calif.), screening service
Text: The effect of potential modulators of kinase activity can be measured in a variety of different assays known in the art. For example, direct radiometric, indirect FRET or AlphaScreen assays may be used to assess the level of phosphorylation of a substrate in the presence of test compounds in order to determine the inhibitory affect of the compound on the kinase. Invitrogen (Carlsbad, Calif.) uses a FRET based assay for Btk, EGFR, EphB2, Flt3, lrak4, Kdr, MAP2K1, MAPKAPK2, PDGFRB, PKC theta, Stk6 and Yes. For these assays, compounds of the invention were screened by Invitrogen using Z′-Lyte™ kinase assay.
Briefly, the Invitrogen kinase assay involves use of a specific peptide substrate optimized for each kinase, containing a fluorophore at each end that make up the FRET pair. The peptide sensitivity to proteolytic cleavage depends on phosphorylation of the peptide. Non-phosphorylated peptide is cleaved by a protease while peptide phosphorylated by the kinase is not cleaved. Cleavage of the peptide disrupts the FRET between the donor (coumarin) and acceptor (fluorescein) fluorophores, resulting in an increase in the ratio of donor emission to acceptor emission. The emission ratio of coumarin to fluorescein is used to assess the reaction progress. The extent of phosphorylation is determined from the emission ratio, which is low when the kinase is active (phosphorylated peptide is not cleaved, FRET pair connected) or higher for inhibited kinase (non-phosphorylated peptide is cleaved, FRET pair separated). Thus, the assay involves a kinase reaction in the presence of varying concentrations of a given compound, a development reaction with site specific protease, and detection of the fluorescent emission ratio of coumarin and fluorscein. […] Reaction conditions for each kinase are determined to provide optimal reaction times, incubation temperature, kinase and ATP concentrations. Test samples are made up in 1× kinase buffer (50 mM HEPES pH 7.5, 50 mM MgCl2, 5 mM EGTA, 0.05% BRIJ-35) and compound at desired concentration prepared in DMSO such that the final DMSO is 1%. […] Typically, assay plates are prepared to 10 μl final volume per sample, adding 2.5 μl of compound at 4× the desired concentration in 4% DMSO (serial dilution of compound provides concentration curve), 5 μl of the desired kinase mixed with Z′-LYTE™ peptide substrate (2× in 2× kinase buffer, final peptide at 2 μM), and 2.5 μl of 4×ATP solution. All kinase except for MAP2K1 were at 10 μM ATP in the kinase reaction, while MAP2K1 was at 100 μM. Samples are mixed and the kinase reaction is incubated 1 hour at room temperature, after which 5 μl of development solution is added and mixed. After incubation for another 1 hour at room temperature, 5 μl of stop reagent is added to each sample and mixed. The fluorescence signals are measured to determine the emission ratio.

Jnk3 = molecular target: T14, Jnk3 (Homo sapiens, UniProt P53779); assay: AlphaScreen kinase assay, Jnk3; details: read-out: IC50, activity toward kinase Jnk3
T14 construct: purchased Upstate Biotechnology

Measured: IC50

T4 sequence (P15056 with tags, fused parts or gaps V600E): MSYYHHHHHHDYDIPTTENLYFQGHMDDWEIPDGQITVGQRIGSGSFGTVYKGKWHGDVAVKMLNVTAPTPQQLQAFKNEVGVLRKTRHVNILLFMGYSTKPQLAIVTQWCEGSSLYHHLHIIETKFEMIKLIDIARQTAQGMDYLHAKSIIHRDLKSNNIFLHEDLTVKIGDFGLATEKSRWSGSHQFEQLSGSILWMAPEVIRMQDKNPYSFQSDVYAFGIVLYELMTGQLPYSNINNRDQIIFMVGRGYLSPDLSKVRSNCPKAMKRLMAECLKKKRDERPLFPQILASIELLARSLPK
T8 sequence (Q06187 whole entry): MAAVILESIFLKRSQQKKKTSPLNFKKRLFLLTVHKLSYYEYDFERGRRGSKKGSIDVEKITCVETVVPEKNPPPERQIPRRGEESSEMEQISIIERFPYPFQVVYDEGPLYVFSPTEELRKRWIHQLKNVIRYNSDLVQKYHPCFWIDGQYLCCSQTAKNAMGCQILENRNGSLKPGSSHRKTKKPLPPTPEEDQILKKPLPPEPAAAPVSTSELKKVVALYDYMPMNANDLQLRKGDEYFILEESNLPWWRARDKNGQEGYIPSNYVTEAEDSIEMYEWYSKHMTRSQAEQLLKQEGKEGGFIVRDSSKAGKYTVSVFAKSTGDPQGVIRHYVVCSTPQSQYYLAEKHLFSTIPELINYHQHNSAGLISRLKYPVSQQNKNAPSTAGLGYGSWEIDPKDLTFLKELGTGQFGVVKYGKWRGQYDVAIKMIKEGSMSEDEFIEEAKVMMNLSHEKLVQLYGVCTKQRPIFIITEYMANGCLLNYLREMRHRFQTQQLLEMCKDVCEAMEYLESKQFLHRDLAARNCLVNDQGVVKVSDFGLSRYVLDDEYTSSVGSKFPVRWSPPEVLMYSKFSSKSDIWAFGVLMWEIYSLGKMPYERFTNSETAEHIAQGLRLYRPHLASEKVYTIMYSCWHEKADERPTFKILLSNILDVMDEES
T6 sequence (P35968 20-1356): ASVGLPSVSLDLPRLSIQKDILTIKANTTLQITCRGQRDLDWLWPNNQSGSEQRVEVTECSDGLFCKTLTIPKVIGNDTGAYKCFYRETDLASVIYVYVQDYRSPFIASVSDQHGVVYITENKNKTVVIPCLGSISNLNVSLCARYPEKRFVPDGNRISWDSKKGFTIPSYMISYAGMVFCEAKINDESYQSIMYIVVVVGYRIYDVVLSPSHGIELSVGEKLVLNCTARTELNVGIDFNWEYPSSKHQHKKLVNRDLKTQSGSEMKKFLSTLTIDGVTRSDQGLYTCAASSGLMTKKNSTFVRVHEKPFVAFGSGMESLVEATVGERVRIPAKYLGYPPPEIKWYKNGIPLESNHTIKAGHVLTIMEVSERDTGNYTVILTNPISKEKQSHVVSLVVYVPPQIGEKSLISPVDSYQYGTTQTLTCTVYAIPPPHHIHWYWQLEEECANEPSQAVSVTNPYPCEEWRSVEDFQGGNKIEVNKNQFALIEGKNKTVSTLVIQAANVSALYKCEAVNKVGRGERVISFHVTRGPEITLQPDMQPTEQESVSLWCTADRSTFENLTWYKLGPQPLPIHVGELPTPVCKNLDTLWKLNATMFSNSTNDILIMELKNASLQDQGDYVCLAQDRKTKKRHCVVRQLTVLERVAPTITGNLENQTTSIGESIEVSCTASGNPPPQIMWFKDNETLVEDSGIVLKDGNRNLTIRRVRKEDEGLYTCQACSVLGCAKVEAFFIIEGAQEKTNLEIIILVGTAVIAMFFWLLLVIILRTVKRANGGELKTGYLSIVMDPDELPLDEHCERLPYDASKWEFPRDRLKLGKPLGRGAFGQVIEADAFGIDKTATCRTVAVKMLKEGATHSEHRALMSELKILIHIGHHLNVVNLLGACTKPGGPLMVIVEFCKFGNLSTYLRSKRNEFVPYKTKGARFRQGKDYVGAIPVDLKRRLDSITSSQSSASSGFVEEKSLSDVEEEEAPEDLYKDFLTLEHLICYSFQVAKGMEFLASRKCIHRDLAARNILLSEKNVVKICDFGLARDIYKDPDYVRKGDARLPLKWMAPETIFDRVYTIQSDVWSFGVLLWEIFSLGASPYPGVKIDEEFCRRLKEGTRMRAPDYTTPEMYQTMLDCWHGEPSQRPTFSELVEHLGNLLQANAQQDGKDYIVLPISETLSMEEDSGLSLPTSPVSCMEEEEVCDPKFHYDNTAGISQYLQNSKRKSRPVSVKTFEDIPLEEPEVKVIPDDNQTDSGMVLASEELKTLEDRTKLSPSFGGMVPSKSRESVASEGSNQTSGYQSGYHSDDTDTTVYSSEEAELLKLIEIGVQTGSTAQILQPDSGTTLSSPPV
T7 sequence (Q02750 whole entry): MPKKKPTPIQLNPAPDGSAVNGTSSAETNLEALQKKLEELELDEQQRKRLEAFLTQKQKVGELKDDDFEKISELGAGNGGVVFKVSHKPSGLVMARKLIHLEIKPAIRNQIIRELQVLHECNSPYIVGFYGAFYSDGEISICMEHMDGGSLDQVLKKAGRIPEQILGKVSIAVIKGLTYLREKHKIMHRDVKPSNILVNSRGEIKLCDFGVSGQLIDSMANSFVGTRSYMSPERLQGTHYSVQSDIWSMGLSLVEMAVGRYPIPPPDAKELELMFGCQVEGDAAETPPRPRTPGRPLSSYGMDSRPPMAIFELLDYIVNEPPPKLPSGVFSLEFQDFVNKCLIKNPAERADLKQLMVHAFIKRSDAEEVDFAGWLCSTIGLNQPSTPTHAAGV
T5 sequence (P11362 458-765 C488A/C584S): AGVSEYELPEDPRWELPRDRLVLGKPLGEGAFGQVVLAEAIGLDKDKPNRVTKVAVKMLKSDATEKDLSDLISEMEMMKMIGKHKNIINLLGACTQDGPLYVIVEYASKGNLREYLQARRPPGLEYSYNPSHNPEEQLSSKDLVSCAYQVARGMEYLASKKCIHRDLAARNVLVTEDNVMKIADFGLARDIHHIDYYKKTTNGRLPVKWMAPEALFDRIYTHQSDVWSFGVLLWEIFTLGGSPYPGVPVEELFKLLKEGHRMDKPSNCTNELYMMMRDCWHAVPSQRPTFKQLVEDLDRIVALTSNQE
T14 sequence (P53779 whole entry): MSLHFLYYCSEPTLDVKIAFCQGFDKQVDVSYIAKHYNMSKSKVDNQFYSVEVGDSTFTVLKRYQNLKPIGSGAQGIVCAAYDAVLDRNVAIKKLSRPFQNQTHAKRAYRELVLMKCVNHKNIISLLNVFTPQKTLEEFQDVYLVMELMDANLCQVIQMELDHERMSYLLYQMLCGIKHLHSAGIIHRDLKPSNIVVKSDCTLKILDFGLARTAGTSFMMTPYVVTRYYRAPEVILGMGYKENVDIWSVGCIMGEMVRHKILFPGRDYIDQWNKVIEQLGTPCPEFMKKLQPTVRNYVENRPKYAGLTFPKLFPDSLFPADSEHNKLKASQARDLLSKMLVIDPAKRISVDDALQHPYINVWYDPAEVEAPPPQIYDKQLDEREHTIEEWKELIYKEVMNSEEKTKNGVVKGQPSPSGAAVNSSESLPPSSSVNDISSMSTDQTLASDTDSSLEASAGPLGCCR
T12 sequence (P45984 whole entry): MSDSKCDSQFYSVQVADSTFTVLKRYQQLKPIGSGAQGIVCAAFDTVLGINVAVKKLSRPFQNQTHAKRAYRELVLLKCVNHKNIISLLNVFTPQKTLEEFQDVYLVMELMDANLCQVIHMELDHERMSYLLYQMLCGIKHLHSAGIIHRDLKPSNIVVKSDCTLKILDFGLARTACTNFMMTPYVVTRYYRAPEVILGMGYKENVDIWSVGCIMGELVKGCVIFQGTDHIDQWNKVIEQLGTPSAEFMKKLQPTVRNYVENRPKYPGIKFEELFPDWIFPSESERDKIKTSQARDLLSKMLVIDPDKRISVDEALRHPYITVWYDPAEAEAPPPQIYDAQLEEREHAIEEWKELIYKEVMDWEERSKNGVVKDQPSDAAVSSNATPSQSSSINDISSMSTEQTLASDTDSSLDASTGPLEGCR
T11 sequence (P07947 whole entry): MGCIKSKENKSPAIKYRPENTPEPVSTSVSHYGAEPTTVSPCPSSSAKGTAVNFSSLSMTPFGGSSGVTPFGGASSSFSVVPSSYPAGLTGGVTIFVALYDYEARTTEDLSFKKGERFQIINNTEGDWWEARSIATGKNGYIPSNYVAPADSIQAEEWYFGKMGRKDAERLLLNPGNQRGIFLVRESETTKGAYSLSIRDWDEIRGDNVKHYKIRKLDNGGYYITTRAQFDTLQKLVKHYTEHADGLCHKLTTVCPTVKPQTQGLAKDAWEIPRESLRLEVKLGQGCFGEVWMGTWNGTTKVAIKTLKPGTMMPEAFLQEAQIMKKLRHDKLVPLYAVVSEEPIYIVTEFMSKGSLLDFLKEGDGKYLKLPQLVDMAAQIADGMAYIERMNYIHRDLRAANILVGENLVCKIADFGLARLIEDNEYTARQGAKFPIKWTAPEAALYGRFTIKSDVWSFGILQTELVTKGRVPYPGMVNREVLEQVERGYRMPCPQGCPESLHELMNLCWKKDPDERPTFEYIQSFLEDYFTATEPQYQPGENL

O=C(c1cc(F)ccc1F)c1c[nH]c2nccc(-c3cc(F)cc(F)c3)c12 [Compound P-0215]
≤ 10 µM: Flt4 | Ret | Jak3 | B-Raf V600E | FGFR1

O=C(O)/C=C/c1cccc(-c2ccnc3[nH]cc(C(=O)c4ccccc4F)c23)c1 [Compound P-0108]
≤ 10 µM: Kdr | MAP2K1 | Ret | Jak3 | Btk | B-Raf V600E

CC(C)(C)OC(=O)Nc1ccc(F)c(C(O)c2c[nH]c3ncc(Br)cc23)c1F (centres unmarked) [Compound P-0318, {3-[(5-Bromo-1H-pyrrolo[2,3-b]pyridin-3-yl)-hydroxy-methyl]-2,4-difluoro-phenyl}-carbamic acid tert-butyl ester]
≤ 10 µM: Jak3 | B-Raf V600E | Pyk2

O=C(c1cc(F)ccc1F)c1c[nH]c2nccc(-c3ccsc3)c12 [Compound P-0119]
≤ 10 µM: Ret | Jak3 | B-Raf V600E | Stk6 | FGFR1

O=C(c1ccccc1F)c1c[nH]c2nccc(-c3cccnc3)c12 [Compound P-0061]
≤ 10 µM: Kdr | MAP2K1 | Ret | Jak3 | Btk | Stk6

CS(=O)(=O)c1cccc(-c2ccnc3[nH]cc(C(=O)c4ccccc4F)c23)c1 [Compound P-0138]
≤ 10 µM: Ret | Jak3 | Btk | Yes

COc1ccc(-c2c[nH]c3ncccc23)cc1OC [Compound P-0238]
≤ 10 µM: Jnk2 | PKC theta | Jnk3

— patent US8415469B2, “Compounds and methods for kinase modulation, and indications therefor” (Plexxikon Inc., priority 2005, dated 2013)
